Results reported in ChEMBL document CHEMBL1128643, “Impact of polyamine analogues on the NMDA receptor” (1995).

Assays:
[1] = species on record: Rattus norvegicus; experiment: Compound was evaluated for agonist activity at 10 uM exhibiting moderate antagonism of [3H]MK-801 binding relative to 100% control; format: functional; set-up: unit: % of control
[2] = species on record: Rattus norvegicus; experiment: Compound was evaluated for agonist activity at 1 uM exhibiting moderate antagonism of [3H]MK-801 binding relative to 100% control; format: functional; set-up: unit: % of control

SMILES	Activity [1]	Activity [2]
C(CCNCCCCN[C@]12C[C@H]3C[C@H](C[C@H](C3)C1)C2)CNCCCCNC12C[C@H]3C[C@@H](C1)C[C@@H](C2)C3.Cl	15	101.9
CCNCCCCNCCCCNCCCCNCC [DIETHYLHOMOSPERMINE]	53.9	114.3
CNCCCCNCCCCNCCCCNC	76.3	117.8
CC(C)(C)NCCCCNCCCCNCCCCNC(C)(C)C	33	106.5
CNCCCNCCCNCCCNC	87.9	120.6
CCNCCCNCCCCNCCCNCC [BIS(ETHYL)SPERMINE]	63.7	113.7
NCCCNCCCCNCCCN [SPERMINE]		123.2
